Structures are written as SMILES.

Experimental findings from patent publication US20230108906A1, “SUBSTITUTED BICYCLIC AND TRICYCLIC UREAS AND AMIDES, ANALOGUES THEREOF, AND METHODS USING SAME” (Arbutus Biopharma Corporation, priority 2019, published 2023) are described below.

The subject of one test is HBV rcDNA in HepDE19 cells. Nature of the test: HepDE19 assay with bDNA quantitation of HBV rcDNA. It is filed as cell-based, hepatitis B virus (HBV). The note with it: Hepatitis B virus, HepDE19, 168 h, inhibition of rcDNA formation in HepDE19 cells (HepG2 derived), Tet-free medium, 7 day incubation, Quantigene 2.0 bDNA readout, top concentration 25 μM; read-out: DE-19bDNA EC50. As for the experimental part:
HepDE19 Assay with bDNA Quantitation of HBV rcDNA:
HepDE19 cell culture system is a HepG2 (human hepatocarcinoma) derived cell line that supports HBV DNA replication and cccDNA formation in a tetracycline (Tet)-regulated manner and produces HBV rcDNA and a detectable reporter molecule dependent on the production and maintenance of cccDNA (Guo, et al., 2007, J. Virol. 81:12472-12484).
HepDE19 (50,000 cells/well) were plated in 96-well collagen-coated tissue-culture treated microtiter plates in DMEM/F12 medium supplemented with 10% fetal bovine serum, 1% penicillin-streptomycin and 1 μg/mL tetracycline and incubated in a humidified incubator at 37° C. and 5% CO2 overnight. Next day, the cells were switched to fresh medium without tetracycline and incubated for 4 hours at 37° C. and 5% CO2. The cells were treated with fresh Tet-free medium with compounds at concentrations starting at 25 μM and a serial, […], 8-point, titration series in duplicate. The final DMSO concentration in the assay was 0.5%. The plates were incubated for 7 days in a humidified incubator at 37° C. and 5% CO2. Following a 7 day-incubation, the level of rcDNA present in the inhibitor-treated wells was measured using a Quantigene 2.0 bDNA assay kit (Affymetrix, Santa Clara, Calif.) with HBV specific custom probe set and manufacturers instructions. Concurrently, the effect of compounds on cell viability was assessed using replicate plates, plated at a density of 5,000 cells/well and incubated for 4 days, to determine the ATP content as a measure of cell viability using the cell-titer glo reagent (CTG; Promega Corporation, Madison, Wis.) as per manufacturer's instructions. The plates were read using a Victor luminescence plate reader (PerkinElmer Model 1420 Multilabel counter) and the relative luminescence units (RLU) data generated from each well was calculated as % inhibition of the untreated control wells and analyzed using XL-Fit module in Microsoft Excel to determine EC50 and EC90 (bDNA) and CC50 (CTG) values using a 4-parameter curve fitting algorithm.
Representative compounds of the disclosure were tested for their abilities to inhibit formation of relaxed circular DNA (rcDNA) in a HepDE19 assay, as described elsewhere herein.
On to `CN(C(=O)Nc1ccc(F)c(C#N)c1)[C@@H]1COCc2[nH]c(=O)c3cc(F)ccc3c21` (single isomer, unassigned) [Compound 64], for which the EC50 stood at 0.02 µM.
Same read-out and setting: the same measure for `O=C(Nc1ccc(F)c(Cl)c1)N[C@@H]1COCc2[nH]c(=O)c3cc(F)ccc3c21` (single isomer, unassigned) [Compound 67]: 0.09 µM.
As to `O=C(Nc1ccc(F)c(Cl)c1)N[C@@H]1COCc2[nH]c(=O)c3cc(F)c(F)cc3c21` (single isomer, unassigned) [Compound 68], the EC50 worked out at 0.03 µM.
On the same count and under the same terms, the same measure for `Cc1cc(NC(=O)N(C)[C@@H]2COCc3[nH]c(=O)c4cc(F)c(F)cc4c32)ccc1F` (single isomer, unassigned) [Compound 69]: 0.01 µM.
As to `CN(C(=O)Nc1ccc(F)c(C#N)c1)[C@@H]1COCc2[nH]c(=O)c3cc(F)c(F)cc3c21` (single isomer, unassigned) [Compound 70], the EC50 came to 0.01 µM.
Still for that read-out and setting: with `CN(C(=O)Nc1ccc(F)c(Cl)c1)[C@H]1COCc2[nH]c(=O)c3cc(F)c(F)cc3c21` (single isomer, unassigned) [Compound 71] the figure was 0.21 µM.
On the same count and under the same terms, with `CN(C(=O)Nc1ccc(F)c(Cl)c1)[C@@H]1COCc2[nH]c(=O)c3cc(F)c(F)cc3c21` (single isomer, unassigned) [Compound 72] the figure was 0.01 µM; with `CN(C(=O)Nc1ccc(F)c(Cl)c1)C1CCCc2[nH]c(=O)c3c(c21)COCC3` (single isomer, unassigned) [Compound 79, 3-(3-Chloro-4-fluorophenyl)-1-methyl-1-(5-oxo-3,4,5,6,7,8,9,10-octahydro-1H-pyrano[4,3-c]quinolin-10-yl)urea], ≥ 25 µM; with `CCN(C(=O)Nc1ccc(F)c(Cl)c1)[C@@H]1COCc2[nH]c(=O)c3cc(F)ccc3c21` (single isomer, unassigned) [Compound 87], 0.01 µM.
Turning to `CCN(C(=O)Nc1ccc(F)c(Cl)c1)[C@@H]1COCc2[nH]c(=O)c3cc(F)c(F)cc3c21` (single isomer, unassigned) [Compound 88], the EC50 was 0.01 µM.

Staying with this test, now noted: inhibition of rcDNA formation in HepDE19 cells (HepG2 derived), Tet-free medium, 7 day incubation, Quantigene 2.0 bDNA readout, top concentration 25 μM; read-out: DE-19bDNA EC50.
For `CN(C(=O)Nc1ccc(F)c(Cl)c1)C1CCCc2[nH]c(=O)c3c(c21)CCOC3` (single isomer, unassigned) [Compound 61, 3-(3-Chloro-4-fluorophenyl)-1-methyl-1-(5-oxo-1,4,5,6,7,8,9,10-octahydro-2H-pyrano[3,4-c]quinolin-10-yl)urea], the EC50 is 5.1 µM.
As for `CN(C(=O)Nc1ccc(F)c(F)c1)C1CCCc2[nH]c(=O)c3c(c21)CCOC3` (single isomer, unassigned) [Compound 62, 3-(3,4-Difluorophenyl)-1-methyl-1-(5-oxo-1,4,5,6,7,8,9,10-octahydro-2H-pyrano[3,4-c]quinolin-10-yl)urea], the EC50 stood at 1.3 µM.
For the compound `CN(C(=O)Nc1ccc(F)c(F)c1)C1CCCc2[nH]c(=O)c3c(c21)CCOC3` (single isomer, unassigned) [Compound 63, 3-(3,4-Difluorophenyl)-1-methyl-1-(5-oxo-1,4,5,6,7,8,9,10-octahydro-2H-pyrano[3,4-c]quinolin-10-yl)urea], the EC50 was 3.1 µM.
For the compound `CN(C(=O)Nc1ccc(F)c(F)c1)C1CCCc2[nH]c(=O)c3c(c21)COCC3` (single isomer, unassigned) [Compound 81, 3-(3,4-Difluorophenyl)-1-methyl-1-(5-oxo-3,4,5,6,7,8,9,10-octahydro-1H-pyrano[4,3-c]quinolin-10-yl)urea], the EC50 was ≥ 25 µM.
As to `CN(C(=O)Nc1ccc(F)c(F)c1)C1CCCc2[nH]c(=O)c3c(c21)COCC3` (single isomer, unassigned) [Compound 82, 3-(3,4-Difluorophenyl)-1-methyl-1-(5-oxo-3,4,5,6,7,8,9,10-octahydro-1H-pyrano[4,3-c]quinolin-10-yl)urea], the EC50 is 7.3 µM.
Still for that read-out and setting: with `CN(C(=O)Nc1ccc(F)c(Cl)c1)C1COCc2[nH]c(=O)c3c(c21)COCC3` (single isomer, unassigned) [Compound 83, 3-(3-Chloro-4-fluorophenyl)-1-methyl-1-(5-oxo-4,5,6,7,9,10-hexahydro-1H,3H-dipyrano[3,4-b:3′,4′-d]pyridin-10-yl)urea] the figure was ≥ 25 µM.
As for `CN(C(=O)Nc1ccc(F)c(Cl)c1)C1COCc2[nH]c(=O)c3c(c21)COCC3` (single isomer, unassigned) [Compound 84, 3-(3-Chloro-4-fluorophenyl)-1-methyl-1-(5-oxo-4,5,6,7,9,10-hexahydro-1H,3H-dipyrano[3,4-b:3′,4′-d]pyridin-10-yl)urea], the EC50 came out at 0.83 µM.
The same measure, in the same setting: with `CN(C(=O)Nc1ccc(F)c(F)c1)C1COCc2[nH]c(=O)c3c(c21)COCC3` (single isomer, unassigned) [Compound 85, 3-(3,4-Difluorophenyl)-1-methyl-1-(5-oxo-1,3,4,5,6,7,9,10-octahydrodipyrano[3,4-b:3′,4′-d]pyridin-10-yl)urea] the figure was 4.5 µM; with `CN(C(=O)Nc1ccc(F)c(F)c1)C1COCc2[nH]c(=O)c3c(c21)COCC3` (single isomer, unassigned) [Compound 86, 3-(3,4-Difluorophenyl)-1-methyl-1-(5-oxo-1,3,4,5,6,7,9,10-octahydrodipyrano[3,4-b:3′,4′-d]pyridin-10-yl)urea], ≥ 25 µM.
With `CN(C(=O)Nc1ccc(F)c(Cl)c1)C1COCc2[nH]c(=O)c3c(c21)CCOC3` (single isomer, unassigned) [Compound 91, 3-(3-Chloro-4-fluorophenyl)-1-methyl-1-(6-oxo-1,2,4,5,6,7,9,10-octahydrodipyrano[3,4-b:4′,3′-d]pyridin-1-yl)urea], the EC50 is 11 µM.
On the same count and under the same terms, with `CN(C(=O)Nc1ccc(F)c(Cl)c1)C1COCc2[nH]c(=O)c3c(c21)CCOC3` (single isomer, unassigned) [Compound 92, 3-(3-Chloro-4-fluorophenyl)-1-methyl-1-(6-oxo-1,2,4,5,6,7,9,10-octahydrodipyrano[3,4-b:4′,3′-d]pyridin-1-yl)urea] the figure was 0.15 µM; with `CN(C(=O)Nc1ccc(F)c(F)c1)C1COCc2[nH]c(=O)c3c(c21)CCOC3` (single isomer, unassigned) [Compound 93, 3-(3,4-Difluorophenyl)-1-methyl-1-(6-oxo-1,2,4,5,6,7,9,10-octahydrodipyrano[3,4-b:4′,3′-d]pyridin-1-yl)urea], ≥ 25 µM.
On to `CN(C(=O)Nc1ccc(F)c(F)c1)C1COCc2[nH]c(=O)c3c(c21)CCOC3` (single isomer, unassigned) [Compound 94, 3-(3,4-Difluorophenyl)-1-methyl-1-(6-oxo-1,2,4,5,6,7,9,10-octahydrodipyrano[3,4-b:4′,3′-d]pyridin-1-yl)urea], for which the EC50 is 0.74 µM.
On to `CN(C(=O)Nc1cc(Cl)c(F)c(Cl)c1)C1COCc2[nH]c(=O)c3cc(F)ccc3c21` (single isomer, unassigned) [Compound 97, 3-(3,5-Dichloro-4-fluorophenyl)-1-(8-fluoro-6-oxo-1,4,5,6-tetrahydro-2H-pyrano[3,4-c]isoquinolin-1-yl)-1-methylurea], for which the EC50 turned out to be 3.3 µM.
In the case of `CN(C(=O)Nc1cc(Cl)c(F)c(Cl)c1)C1COCc2[nH]c(=O)c3cc(F)ccc3c21` (single isomer, unassigned) [Compound 98, 3-(3,5-Dichloro-4-fluorophenyl)-1-(8-fluoro-6-oxo-1,4,5,6-tetrahydro-2H-pyrano[3,4-c]isoquinolin-1-yl)-1-methylurea], the EC50 stood at 0.03 µM.
`CC(C)CN(C(=O)Nc1ccc(F)c(F)c1)C1COCc2[nH]c(=O)c3cc(F)ccc3c21` (single isomer, unassigned) [Compound 99, 3-(3,4-Difluorophenyl)-1-(8-fluoro-6-oxo-2,4,5,6-tetrahydro-1H-pyrano[3,4-c]isoquinolin-1-yl)-1-isobutylurea]: the EC50 came out at 0.01 µM.
For the compound `CC(C)CN(C(=O)Nc1ccc(F)c(F)c1)C1COCc2[nH]c(=O)c3cc(F)ccc3c21` (single isomer, unassigned) [Compound 100, 3-(3,4-Difluorophenyl)-1-(8-fluoro-6-oxo-2,4,5,6-tetrahydro-1H-pyrano[3,4-c]isoquinolin-1-yl)-1-isobutylurea], the EC50 is 0.43 µM.

In general, EC50 refers to the concentration that produces a half-maximal response.
